Data as given in patent publication US11691962B2 (eXIthera Pharmaceuticals, Inc., priority 2018, dated 2023).

Key:
[1] = biological target: Factor XIa (Homo sapiens (Human), UniProt P03951); test: Factor XIa enzyme inhibition assay (dose response, fluorogenic AMC substrate); assay type: biochemical; settings: read-out: hFXIa IC50
Procedure, shortened: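 Fluorogenic progress curves (30 min, 1-min reads, 30° C) were recorded for 0.25 nM FXIa cleaving 50 μM Glp-Pro-Arg-AMC in Hepes pH 7.4 buffer with NaCl and Tween 20. Compounds were serially two-fold diluted, and IC50 was fitted with a Hill equation.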

[2] = tested on: Trypsin; test: Dose response assay for protease inhibitors: trypsin; assay type: biochemical; settings: selectivity, trypsin over Factor XIa
Procedure, shortened: (§1)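 Glp-Pro-Arg-AMC substrate (thrombin, trypsin) or Pro-Phe-Arg-AMC/Boc-Leu-Gly-Arg-AMC (Factor Xa), diluted to 100 μM, in 20 mM Hepes pH 7.4, 150 mM NaCl, 0.02% Tween 20; enzyme diluted to 0.5 nM before addition. Two-fold serial compound dilutions; kinetic reads at 30° C. Data yield IC50 and Kon.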

[3] = biological target: Factor Xa (Homo sapiens (Human), UniProt P00742); test: Dose response assay for protease inhibitors: Factor Xa; assay type: biochemical; settings: selectivity, Factor Xa over Factor XIa
Factor Xa, sequence (P00742 235-488): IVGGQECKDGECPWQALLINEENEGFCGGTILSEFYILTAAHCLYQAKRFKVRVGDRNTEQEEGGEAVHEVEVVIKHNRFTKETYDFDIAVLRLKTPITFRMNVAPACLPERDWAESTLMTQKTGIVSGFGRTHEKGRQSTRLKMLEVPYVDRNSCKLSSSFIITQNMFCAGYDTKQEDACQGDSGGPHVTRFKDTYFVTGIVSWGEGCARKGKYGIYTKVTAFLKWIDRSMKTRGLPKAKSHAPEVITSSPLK
Factor Xa, sequence (P00742 41-179 partner): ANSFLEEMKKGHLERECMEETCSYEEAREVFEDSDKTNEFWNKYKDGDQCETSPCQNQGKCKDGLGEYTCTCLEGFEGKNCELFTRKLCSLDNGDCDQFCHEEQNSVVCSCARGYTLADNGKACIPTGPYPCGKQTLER
Procedure, shortened: as §1

[4] = biological target: Thrombin (Homo sapiens (Human), UniProt P00734); test: Dose response assay for protease inhibitors: thrombin; assay type: biochemical; settings: selectivity, thrombin over Factor XIa
Procedure, shortened: as §1

[5] = tested on: human plasma protein; test: Plasma protein binding by equilibrium dialysis; assay type: in vitro ADME; settings: pooled human plasma, 10 μM, 4 hours at 37° C.
Experimental: The following procedure was used to determine the plasma protein binding of a test compound in pooled plasma from human (mixed gender) via equilibrium dialysis in a 96-well plate format. The dialysate compartment was loaded with phosphate-buffered saline (pH 7.4) and the sample side was loaded with plasma spiked with the test compound at a concentration of 10 μM. After loading, samples were covered and incubated for 4 hours at 37° C. After incubation, each compartment was sampled, diluted with acetonitrile/buffer and centrifuged. The supernatants were analyzed by HPLC-MS/MS. The analyte peak areas obtained from HPLC-MS/MS analysis of each sample were used to calculate protein binding according to the following equation (Equation 4):
[formula] where: AREAp=Peak area of analyte in protein matrix; AREAb=Peak area of analyte in buffer.
The amount measured in the plasma compartment included both free and bound drug, while that on the buffer side represented free drug only; the differences were used to calculate the percentage plasma protein bound. Three reference compounds were tested in each assay: acebutolol, quinidine and warfarin.

[6] = Aqueous solubility in PBS by HPLC-UV/VIS; assay type: physicochemical; settings: PBS pH 7.4, 2% DMSO, 24 h at room temperature
Experimental: The following procedure was used to determine the aqueous solubility of a test compound in phosphate buffered saline (PBS-NaCl 137 mM, KCl 2.7 mM, Na2HPO4 8.1 mM, KH2PO4 1.5 mM, pH 7.4) in 96-well plate format by HPLC-UV/VIS analysis. The test compound was prepared at 200 μM in PBS from a 10 mM DMSO stock solution. The final DMSO concentration was 2%. The PBS buffer samples were mixed thoroughly followed by incubation at room temperature for 24 h. At the end of the incubation, the PBS buffer samples were centrifuged and supernatants analyzed by HPLC. The aqueous solubility (μM) of the test compound in PBS was determined by comparing the peak area of the principal peak in the calibration standard (200 μM) with the peak area of the corresponding peak in each of the PBS samples. The range of the assay was approximately 0.5 μM to 200 μM. The reference compounds used in each assay were metoprolol, rifampicin, ketoconazole, phenytoin, haloperidol, simvastatin, diethylstilbestrol, and tamoxifen ranking from fully soluble (200 μM) to poorly soluble (<1 μM).

[7] = tested on: Caco-2 cells; test: Caco-2 cell permeability assay; assay type: in vitro ADME, human; settings: Papp, 10 μM, 37° C.
Experimental: The following procedure was used to determine the ability of a test compound to cross Caco-2 cells (human intestinal epithelial cells derived from a colorectal adenocarcinoma). The cells were seeded at 1×10^5 cells/cm^2 in 96-well Multiscreen™ plates (Millipore). Permeability assays were performed with the cells at days 21-25 post-seeding. Cells are typically used for 15 consecutive passages in culture.
This assay can be performed in either the apical to basolateral (A-B) or basolateral to apical (B-A) direction. The test compound was prepared at 10 μM in HBSS-MES (pH 6.5) or HBSS-HEPES (pH 7.4) with a final DMSO concentration of 1%. The working solution was then centrifuged and the supernatant added to the donor side. The assay plate was incubated at 37° C. with gentle shaking for 60 min or 40 min for the A-B or B-A assay, respectively. Samples were aliquoted from the donor side at time zero and the end point, and from the receiver side at the end point.
Reference compounds, propranolol (highly permeable), labetalol (moderately permeable), ranitidine (poorly permeable), and colchicine (P-glycoprotein substrate) were included in each assay.
Samples are analyzed by HPLC-MS/MS using selected reaction monitoring. The HPLC system consists of a binary LC pump with autosampler, a C-18 column, and a gradient.
The apparent permeability coefficient (Papp) of the test compound (Equation 2) and its recovery (Equation 3) are calculated as follows:
[formula] wherein A is the surface area of the cell monolayer (0.11 cm^2), C is concentration of the test compound expressed as peak area, D denotes donor, and R is receiver. “0”, “mid,” and “end” denote time at zero, mid-point, and end of the incubation, respectively. Δt is the incubation time. V is the volume of the donor or receiver.
This is most likely due to non-specific binding or degradation.

Factor XIa, sequence (P03951 388-625): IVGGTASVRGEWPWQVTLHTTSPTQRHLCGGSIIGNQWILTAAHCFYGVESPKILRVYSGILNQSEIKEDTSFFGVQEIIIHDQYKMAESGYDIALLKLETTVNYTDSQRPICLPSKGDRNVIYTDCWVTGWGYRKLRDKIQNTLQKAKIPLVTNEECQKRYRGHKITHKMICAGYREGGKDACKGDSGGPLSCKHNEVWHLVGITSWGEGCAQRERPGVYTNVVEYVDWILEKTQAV
Factor XIa, sequence (P03951 19-387 partner): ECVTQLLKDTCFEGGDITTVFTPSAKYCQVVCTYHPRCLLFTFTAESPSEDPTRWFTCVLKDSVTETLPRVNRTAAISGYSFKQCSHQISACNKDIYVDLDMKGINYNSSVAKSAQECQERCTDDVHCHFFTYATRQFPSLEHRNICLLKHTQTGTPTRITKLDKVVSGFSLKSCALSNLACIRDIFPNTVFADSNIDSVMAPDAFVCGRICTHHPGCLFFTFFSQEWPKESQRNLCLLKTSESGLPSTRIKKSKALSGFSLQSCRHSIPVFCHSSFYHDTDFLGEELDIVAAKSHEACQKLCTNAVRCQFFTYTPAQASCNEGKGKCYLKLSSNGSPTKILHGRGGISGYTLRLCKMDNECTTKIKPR

(2S,3R)-3-((2-aminopyridin-4-yl)methyl)-N2-(1-methyl-1H-imidazol-2-yl)-N1-((R)-1-(3-fluorophenyl)propyl)-N2-methyl-4-oxoazetidine-1,2-dicarboxamide [Compound 1-79]
IC50 [1]: < 10 nM | Ratio: Trypsin/FXIa [2]: G (“G” indicates 1-100) | Ratio: FXa/FXIa [3]: I (“I” indicates > 500) | Ratio: Thrombin/FXIa [4]: H (“H” indicates 101-1000) | PPB (%) [5]: Z (“Z” indicates 50-90%) | Aqueous Solubility (uM, in PBS) [6]: W (“W” indicates > 100 μM) | Caco-2 Permeability (A-B) ([7]; apical to basolateral, 60 min): P (“P” indicates < 10 × 10^−6 cm/s) | Caco-2 Permeability (B-A) ([7]; basolateral to apical, 40 min): Q (“Q” indicates 11-30 × 10^−6 cm/s)
